Patent publication US12171864B2, “Biological self-assembled nanocrystal injection having a lymphatic targeting function and preparation method” (SHENZHEN CHINA RESOURCES JIUCHUANG MEDICAL AND …, priority 2017, dated 2024)
Structures can show the parent of a compound that is named as a salt.

Key:
injection site = experiment: Effect of the osmotic pressure on the irritation of the injection site (H&E staining); type: in vivo, Kunming mice
From the text: (§1) Mitoxantrone hydrochloride was used as a model drug. The osmotic pressure of the injection was adjusted to 112, 196, 285, 307, 1503, 2317, and 3011 mmol/Kg, respectively. The mode of administration of interstitial injection was selected for subcutaneous injection in the paws of Kunming mice. At the pre-set time points, the mice were sacrificed by cervical dislocation, and the administration sites of the mice were taken for H&E staining to evaluate local irritation.

[1] = Effect of pH on the drug stability (drug content after 0.22 μm filtration); type: physicochemical; settings: filtered 0.22 μm
Protocol: Mitoxantrone hydrochloride was used as a model drug. The pH of the injection was adjusted to 1.5, 2.0, 2.5, 3.5, 4.5, 5.5, 6.0, 6.5, and 7.0, respectively. At one hour after adjusting the pH value, the content of the drug was determined after filtration through a 0.22 μm membrane. When the pH was between 1.5 and 6.0, the drug content was from 98.45±0.61% to 101.72±0.20%.

lymph nodes [2] = experiment: Effect of pH on the drug targeting ability (lymph node staining); type: in vivo, Kunming mice
From the text: Mitoxantrone hydrochloride was used as a model drug. The pH of the injection was adjusted to 1.5, 2.0, 2.5, 3.5, 4.5, 5.5, and 6.0, respectively. The mode of administration of interstitial injection was selected for subcutaneous injection in the paws of Kunming mice. At the pre-set time points, the mice were sacrificed by cervical dislocation, and the first, second and third classes of lymph nodes of the mice were removed for observation of staining.

lymph nodes [3] = experiment: Effect of the osmotic pressure on the drug targeting ability (lymph node staining); type: in vivo, Kunming mice
From the text: as §1, with “the first, second and third classes” for “the administration sites”, “of lymph nodes” for “of the mice”, “were removed” for “were taken”, “for observation of staining.” for “for H&E staining to evaluate local irritation.”

In the case of O=C1c2c(O)ccc(O)c2C(=O)c2c(NCCNCCO)ccc(NCCNCCO)c21 [Mitoxantrone hydrochloride], the “local irritation of the injection site” value (injection site; osmotic pressure 3011 mmol/Kg, subcutaneous injection in the paws) is reported as “redness and swelling occurred and the H&E staining showed local irritation”, the “local irritation of the injection site” value (injection site; other osmotic pressure values (112, 196, 285, 307, 1503, 2317 mmol/Kg)) is reported as “did not show obvious local irritation” and the drug content ([1]; pH 6.5, one hour after adjusting pH) is reported as 83.76±0.53%. For the same compound, the drug content ([1]; pH 7.0, one hour after adjusting pH) was 75.38±0.22%, the “color of third class of lymph nodes” value (lymph nodes [2]; pH 2.0, 2.5 or 6.0, subcutaneous injection in the paws) was “light blue” and the “staining of lymph nodes” value (lymph nodes [2]; pH between 2.0 and 6.0, subcutaneous injection in the paws) was “the three classes of lymph nodes could be stained”. The “staining of lymph nodes” value (lymph nodes [2]; pH between 3.5 and 5.5, subcutaneous injection in the paws) was “all the three classes of lymph nodes could be stained into dark blue”, the “staining of lymph nodes” value (lymph nodes [2]; pH less than 2.0, subcutaneous injection in the paws) was “only one class of lymph nodes could be stained” and the “color of third class of lymph nodes” value (lymph nodes [3]; osmotic pressure 285 or 2317 mmol/Kg) was “light blue”. For the same compound, the “staining of lymph nodes” value (lymph nodes [3]; osmotic pressure between 285 and 2317 mmol/Kg) was “all the three classes of lymph nodes could be stained”, the “staining of lymph nodes” value (lymph nodes [3]; osmotic pressure between 307 and 1503 mmol/Kg) was “all the three classes of lymph nodes could be stained into dark blue” and the “staining of lymph nodes” value (lymph nodes [3]; osmotic pressure less than 285 mmol/Kg) was “only one class of lymph nodes could be stained”.
